# Experimental data published in US8729110B1, “2-thio-1,3,4-oxadiazoles derivatives as sphingosine-1 phosphate receptors modulators” (Allergan, Inc., priority 2012, dated 2014).
# Target: T1, human S1P1 receptor (Homo sapiens, UniProt P21453)
# T1 construct: expressed in transfected cells; membranes used
# Assay: GTP γ35S binding assay for S1P1 activity
# Format: biochemical
# Conditions: activity potency, S1P1 receptor from GTP γ35S binding; 5 μg membrane protein; test compounds 0.08 to 5,000 nM; 30 min at 25° C.
# Protocol: Compounds were synthesized and tested for S1P1 activity using the GTP γ^35S binding assay. These compounds may be assessed for their ability to activate or block activation of the human S1P1 receptor in cells stably expressing the S1P1 receptor.
# GTP γ^35S binding was measured in the medium containing (mM) HEPES 25, pH 7.4, MgCl2 10, NaCl 100, dithitothreitol 0.5, digitonin 0.003%, 0.2 nM GTP γ^35S, and 5 μg membrane protein in a volume of 150 μl. Test compounds were included in the concentration range from 0.08 to 5,000 nM unless indicated otherwise. Membranes were incubated with 100 μM 5′-adenylylimmidodiphosphate for 30 min, and subsequently with 10 μM GDP for 10 min on ice. Drug solutions and membrane were mixed, and then reactions were initiated by adding GTP γ^35S and continued for 30 min at 25° C. Reaction mixtures were filtered over Whatman GF/B filters under vacuum, and washed three times with 3 mL of ice-cold buffer (HEPES 25, pH7.4, MgCl2 10 and NaCl 100). Filters were dried and mixed with scintillant, and counted for ^35S activity using a β-counter. Agonist-induced GTP γ^35S binding was obtained by subtracting that in the absence of agonist. Binding data were analyzed using a non-linear regression method. In case of antagonist assay, the reaction mixture contained 10 nM […] in the presence of test antagonist at concentrations ranging from 0.08 to 5000 nM.
# T1 sequence (P21453 whole entry): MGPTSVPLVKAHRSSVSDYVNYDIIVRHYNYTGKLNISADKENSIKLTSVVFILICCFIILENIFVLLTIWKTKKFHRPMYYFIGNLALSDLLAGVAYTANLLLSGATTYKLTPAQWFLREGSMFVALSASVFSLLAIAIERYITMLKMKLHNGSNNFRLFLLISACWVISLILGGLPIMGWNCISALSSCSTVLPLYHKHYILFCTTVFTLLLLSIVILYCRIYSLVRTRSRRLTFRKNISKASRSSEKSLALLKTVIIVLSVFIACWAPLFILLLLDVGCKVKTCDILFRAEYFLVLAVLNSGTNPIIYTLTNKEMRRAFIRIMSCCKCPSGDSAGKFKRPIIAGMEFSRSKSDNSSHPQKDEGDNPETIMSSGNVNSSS
row,SMILES,EC50 [nM]
1,"Cc1ccc(-c2nnc(SC(C)c3ccc(CNCCCP(=O)(O)O)cc3)o2)cc1C (centres unmarked) [(3-{[4-(1-{[5-(3,4-dimethylphenyl)-1,3,4-oxadiazol-2-yl]thio}ethyl)benzyl]amino}propyl)phosphonic acid]",888
2,"Cc1ccc(-c2nnc(SCc3ccc(CNCCCP(=O)(O)O)cc3)o2)cc1C [(3-{[4-({[5-(3,4-dimethylphenyl)-1,3,4-oxadiazol-2-yl]thio}methyl)benzyl]amino}propyl)phosphonic acid]",805
3,"O=P(O)(O)CCCNCc1ccc(-c2nnc(SCc3cccc(Cl)c3F)o2)cc1 [Compound 1, {3-[(4-{5-[(3-chloro-2-fluorobenzyl)thio]-1,3,4-oxadiazol-2-yl}benzyl)amino]propyl}phosphonic acid]",853
4,"Cc1cc(CNCCCP(=O)(O)O)ccc1-c1nnc(SC(C)c2cccc([N+](=O)[O-])c2)o1 (centres unmarked) [Compound 6, (3-{[3-methyl-4-(5-{[1-(3-nitrophenyl)ethyl]thio}-1,3,4-oxadiazol-2-yl)benzyl]amino}propyl)phosphonic acid]",231
5,"CCC(Sc1nnc(-c2ccc(CNCCCP(=O)(O)O)cc2C)o1)c1cccc([N+](=O)[O-])c1 (centres unmarked) [Compound 7, (3-{[3-methyl-4-(5-{[1-(3-nitrophenyl)propyl]thio}-1,3,4-oxadiazol-2-yl)benzyl]amino}propyl)phosphonic acid]",50
6,"O=[N+]([O-])c1cccc(CSc2nnc(-c3ccc(CNCCCP(=O)(O)O)cc3)o2)c1 [Compound 9, {3-[(4-{5-[(3-nitrobenzyl)thio]-1,3,4-oxadiazol-2-yl}benzyl)amino]propyl}phosphonic acid]",1810
7,"Cc1ccc(CSc2nnc(-c3ccc(CNCCCP(=O)(O)O)cc3)o2)cc1C [Compound 10, {3-[(4-{5-[(3,4-dimethylbenzyl)thio]-1,3,4-oxadiazol-2-yl}benzyl)amino]propyl}phosphonic acid]",97
8,"CCc1cc(CNCCCP(=O)(O)O)ccc1-c1nnc(SC(C)c2cccc([N+](=O)[O-])c2)o1 (centres unmarked) [Compound 11, (3-{[3-ethyl-4-(5-{[1-(3-nitrophenyl)ethyl]thio}-1,3,4-oxadiazol-2-yl)benzyl]amino}propyl)phosphonic acid]",30
9,"CCCC(Sc1nnc(-c2ccc(CNCCCP(=O)(O)O)cc2)o1)c1ccccc1 (centres unmarked) [Compound 14, {3-[(4-{5-[(1-phenylbutyl)thio]-1,3,4-oxadiazol-2-yl}benzyl)amino]propyl}phosphonic acid]",1.5
10,"CCCC(Sc1nnc(-c2ccc(CNCCCP(=O)(O)O)cc2)o1)c1cccc(Cl)c1F (centres unmarked) [Compound 15, (3-{[4-(5-{[1-(3-chloro-2-fluorophenyl)butyl]thio}-1,3,4-oxadiazol-2-yl)benzyl]amino}propyl)phosphonic acid]",1.8
11,"CCC(Sc1nnc(-c2ccc(CNCCCP(=O)(O)O)cc2)o1)c1cccc([N+](=O)[O-])c1 (centres unmarked) [Compound 16, (3-{[4-(5-{[1-(3-nitrophenyl)propyl]thio}-1,3,4-oxadiazol-2-yl)benzyl]amino}propyl)phosphonic acid]",40
12,"CC(Sc1nnc(-c2ccc(CNCCCP(=O)(O)O)cc2)o1)c1cccc([N+](=O)[O-])c1 (centres unmarked) [Compound 17, (3-{[4-(5-{[1-(3-nitrophenyl)ethyl]thio}-1,3,4-oxadiazol-2-yl)benzyl]amino}propyl)phosphonic acid]",382
13,"CCc1cc(CNCCCP(=O)(O)O)sc1-c1nnc(SC(C)c2cccc([N+](=O)[O-])c2)o1 (centres unmarked) [Compound 26, [3-({[4-ethyl-5-(5-{[1-(3-nitrophenyl)ethyl]sulfanyl}-1,3,4-oxadiazol-2-yl)thiophen-2-yl]methyl}amino)propyl]phosphonic acid]",1260
14,"Cc1cc(CNCCCP(=O)(O)O)sc1-c1nnc(SC(C)c2cccc([N+](=O)[O-])c2)o1 (centres unmarked) [Compound 27, [3-({[4-methyl-5-(5-{[1-(3-nitrophenyl)ethyl]sulfanyl}-1,3,4-oxadiazol-2-yl)thiophen-2-yl]methyl}amino)propyl]phosphonic acid]",200
